Test results published in article PMC8565515, “Dasabuvir Inhibits Human Norovirus Infection in Human Intestinal Enteroids” (mSphere, 2021).
Counter-ions that a name gives are not always drawn. Like-named read-outs stand apart in the source and are kept apart here.

Assays:
[1] = system: GII.4 HuNoV; test: GII.4 HuNoV infection of HIE monolayers, viral genome equivalents by RT-qPCR; format: cell-based, human norovirus; details: for activity at 10 µM: Norovirus, 24 h, read-out: (%) HuNoV GEs
[2] = system: J2 HIE monolayers
[3] = compound 10 μM, n = 1, J2 HIE monolayers, GII.4 HuNoV, 24 hpi, normalized to DMSO control

Compound | activity at 10 µM [1, 3] [%] | (%) Cytotoxicity ([2]; human, 24 h, 10 μM) [%] | other results
COC(=O)C1=C(C)NC(c2ncc(F)cc2F)=NC1c1ccc(F)cc1Cl (racemic) [Bay 41-4109 racemate] |  |  | (%) HuNoV GEs [1, 3]: 39.26%
N[C@@H](CCC(=O)N[C@@H](CS[C@@H]1CCn2ccc(CO)c21)C(=O)NCC(=O)O)C(=O)O [6466-0862] |  |  | (%) HuNoV GEs [1, 3]: 155.85%; (%) Cytotoxicity [2]: -0.22%
COC(=O)C(C)(N)C(C)(C)C (stereo not drawn) [6526-0824] |  |  | (%) HuNoV GEs [1, 3]: 131.97%; (%) Cytotoxicity [2]: 2.41%
O=C(O[C@@H]1Cc2c(O)cc(O)cc2O[C@@H]1c1cc(O)c(O)c(O)c1)c1cc(O)c(O)c(O)c1 [(-)-Epigallocatechin Gallate] | 198 | 2.41 | 
Nc1nc(NC2CC2)c2ncn([C@H]3C=C[C@@H](CO)C3)c2n1 [Abacavir] | 64.9 | 0.27 | 
Nc1nc2c(ncn2COCCO)c(=O)[nH]1 [Aciclovir] | 54.4 | 0.59 | 
CC(C)(C)C(=O)OCOP(=O)(COCCn1cnc2c(N)ncnc21)OCOC(=O)C(C)(C)C [Adefovir dipivoxil] |  | 3.59 | activity at 10 µM [1]: 67.1%
O=C1c2cccc(O)c2C(=O)c2c(O)cc(CO)cc21 [Aloe-emodin] | 253 | 0.59 | 
NC12CC3CC(CC(C3)C1)C2 [Amantadine hydrochloride] | 232 |  | 
Cc1cccc(C)c1N(CC(=O)Nc1ccc(-c2ncon2)cc1)C(=O)C1CCS(=O)(=O)CC1 [Amenamevir] | 61.7 | 0.09 | 
CC1(C)S[C@@H]2[C@H](NC(=O)[C@H](N)c3ccccc3)C(=O)N2[C@H]1C(=O)O [Ampicillin Trihydrate] | 100 | 1.14 | 
CC(C)CN(C[C@@H](O)[C@H](Cc1ccccc1)NC(=O)O[C@H]1CCOC1)S(=O)(=O)c1ccc(N)cc1 [Amprenavir] | 15.9 | -0.21 | 
C[C@@H]1CC[C@H]2[C@@H](C)C(=O)O[C@@H]3O[C@@]4(C)CC[C@@H]1[C@]32OO4 [Artemisinin] | 51.7 | 1.63 | 
COC(=O)N[C@H](C(=O)N[C@@H](Cc1ccccc1)[C@@H](O)CN(Cc1ccc(-c2ccccn2)cc1)NC(=O)[C@@H](NC(=O)OC)C(C)(C)C)C(C)(C)C [Atazanavir] | 66.4 | 0.72 | 
CC1(C)S[C@@H]2[C@H](NC(=O)[C@H](NC(=O)N3CCNC3=O)c3ccccc3)C(=O)N2[C@H]1C(=O)O [Azlocillin sodium] | 28 |  | 
O=C(O)[C@H]1O[C@@H](Oc2cc3oc(-c4ccccc4)cc(=O)c3c(O)c2O)[C@H](O)[C@@H](O)[C@@H]1O [Baicalin] | 97.7 |  | 
OC[C@H]1O[C@@H]2O[C@H]3[C@H](O)[C@@H](O)[C@@H](O[C@H]4[C@H](O)[C@@H](O)[C@@H](O[C@H]5[C@H](O)[C@@H](O)[C@@H](O[C@H]6[C@H](O)[C@@H](O)[C@@H](O[C@H]7[C@H](O)[C@@H](O)[C@@H](O[C@H]8[C@H](O)[C@@H](O)[C@@H](O[C@H]1[C@H](O)[C@H]2O)O[C@@H]8CO)O[C@@H]7CO)O[C@@H]6CO)O[C@@H]5CO)O[C@@H]4CO)O[C@@H]3CO [Beta-Cyclodextrin] | 70.6 | -0.91 | 
C=C(C)[C@@H]1CC[C@]2(CO)CC[C@]3(C)[C@H](CC[C@@H]4[C@@]5(C)CC[C@H](O)C(C)(C)[C@@H]5CC[C@]43C)[C@@H]12 [Betulin] | 69.8 |  | (%) Cytotoxicity ([2]; human): 4.24%
C=C(C)[C@@H]1CC[C@]2(C(=O)O)CC[C@]3(C)[C@H](CC[C@@H]4[C@@]5(C)CC[C@H](O)C(C)(C)[C@@H]5CC[C@]43C)[C@@H]12 [Betulinic acid] | 16.4 |  | 
CCOC(=O)CCc1c(C)nc2c(c(C)nn2-c2ccc(C)cc2)c1C [C430-0518] |  |  | (%) HuNoV GEs [1, 3]: 170.30%; (%) Cytotoxicity [2]: -1.01%
CCc1nn(CC(=O)NCCCN(CC)CC)c(=O)c2cc3sc(C)cc3n12 [C795-0720] |  |  | (%) HuNoV GEs [1, 3]: 100.75%; (%) Cytotoxicity [2]: 0.72%

Compound | activity at 10 µM [1, 3] [%] | (%) Cytotoxicity ([2]; human, 24 h, 10 μM) [%] | other results
OC[C@H]1O[C@@H](O[C@@H]2OC=C[C@H]3[C@H](O)[C@@H]4O[C@]4(CO)[C@@H]23)[C@H](O)[C@@H](O)[C@@H]1O [Catalpol] | 104 | 3.07 | 
C=CC1=C(C(=O)O)N2C(=O)[C@@H](NC(=O)/C(=N\O)c3csc(N)n3)[C@H]2SC1 [Cefdinir] | 118 | 2.33 | 
CO/N=C(\C(=O)N[C@@H]1C(=O)N2C(C(=O)O)=C(C[N+]3(C)CCCC3)CS[C@H]12)c1csc(N)n1 [Cefepime Dihydrochloride Monohydrate] | 116 | 3.73 | 
C=CC1=C(C(=O)O)N2C(=O)[C@@H](NC(=O)/C(=N\OCC(=O)O)c3csc(N)n3)[C@H]2SC1 [Cefixime] | 41.9 | 2.28 | 
CO/N=C(\C(=O)N[C@@H]1C(=O)N2C(C(=O)O)=C(COC(C)=O)CS[C@H]12)c1csc(N)n1 [Cefotaxime sodium] | 10.1 | 0.51 | 
Cc1cc(O)cc(C)c1Cl [Chloroxylenol] | 65.9 |  | 
Clc1ccc(Cn2c(CN3CCCC3)nc3ccccc32)cc1 [Clemizole] | 85.7 | 3.11 | 
Cc1cn([C@H]2O[C@@H](CO)[C@H](O)[C@H]2F)c(=O)[nH]c1=O [Clevudine] | 33.8 | -0.09 | 
Clc1ccccc1C(c1ccccc1)(c1ccccc1)n1ccnc1 [Clotrimazole] | 159 | 0.51 | 
CN(C)c1ccc(C(=C2C=CC(=[N+](C)C)C=C2)c2ccc(N(C)C)cc2)cc1 [Crystal Violet] | 14.5 | 55.49 | 
Nc1ccn([C@@H]2O[C@H](CO)[C@@H](O)[C@@H]2O)c(=O)n1 [Cytarabine] | 31.3 | -0.77 | 
COC(=O)N[C@H](C(=O)N1CCC[C@H]1c1nc(-c2ccc(-c3ccc(-c4c[nH]c([C@@H]5CCCN5C(=O)[C@@H](NC(=O)OC)C(C)C)n4)cc3)cc2)c[nH]1)C(C)C [Daclatasvir dihydrochloride] | 178 | 5.28 | 
CC(C)CN(C[C@@H](O)[C@H](Cc1ccccc1)NC(=O)O[C@H]1CO[C@H]2OCC[C@H]21)S(=O)(=O)c1ccc(N)cc1.CCO [Darunavir Ethanolate] |  |  | (%) HuNoV GEs [1, 3]: 147.86%
CC(C)CN(C[C@@H](O)[C@H](Cc1ccccc1)NC(=O)O[C@H]1CO[C@H]2OCC[C@H]21)S(=O)(=O)c1ccc(N)cc1 [Darunavir] | 91.8 |  | 
C=C1CC[C@@H]2[C@](C)(COC(=O)CCC(=O)[O-])[C@H](OC(=O)CCC(=O)O)CC[C@@]2(C)[C@@H]1/C=C/C1=CCOC1=O.[K+] [Dehydroandrographolide Succinate Potasium Salt] |  |  | (%) HuNoV GEs [1, 3]: 40.48%
O=c1[nH]c(=O)n([C@H]2C[C@H](O)[C@@H](CO)O2)cc1I [Dendrid] | 67.3 | -0.36 | 
CN(C)CC[C@@H](c1ccc(Cl)cc1)c1ccccn1 [Dexchlorpheniramine Maleate] | 63.6 | -3.40 | 
CC(=O)OCC(=O)[C@@]1(O)CC[C@H]2[C@@H]3CCC4=CC(=O)C=C[C@]4(C)[C@@]3(Cl)[C@@H](Cl)C[C@@]21C [Dichlorisone Acetate] | 59.1 | -1.58 | 
O=c1[nH]cnc2c1ncn2[C@H]1CC[C@@H](CO)O1 [Didanosine] | 52.8 | -0.0652 | 
C[C@@H]1CCO[C@H]2Cn3cc(C(=O)NCc4ccc(F)cc4F)c(=O)c(O)c3C(=O)N12 [Dolutegravir] | 8.52 |  | 
Cn1c(Cn2ccc(C(F)(F)F)c(Oc3cc(Cl)cc(C#N)c3)c2=O)n[nH]c1=O [Doravirine] | 32.7 |  | 

Compound | activity at 10 µM [1, 3] [%] | (%) Cytotoxicity ([2]; human, 24 h, 10 μM) [%] | other results
Clc1ccc(COC(Cn2ccnc2)c2ccc(Cl)cc2Cl)cc1 (stereo not drawn) [Econazole] | 95.8 | 7.35 | 
O=C1Nc2ccc(Cl)cc2[C@@](C#CC2CC2)(C(F)(F)F)O1 [Efavirenz] | 135 | 1.69 | 
C[C@H](NC(=O)C(=O)Nc1ccccc1C(C)(C)C)C(=O)N[C@@H](CC(=O)O)C(=O)COc1c(F)c(F)cc(F)c1F [Emricasan] | 198 |  | 
Nc1nc(=O)n([C@@H]2CS[C@H](CO)O2)cc1F [Emtricitabine] | 55.5 | 2.80 | 
Cc1nn(CCC(=O)Nc2cccc(C#N)c2)c(C)c1S(=O)(=O)N1CCCCC1 [G402-0939] |  |  | (%) HuNoV GEs [1, 3]: 147.17%
Cc1cccc(N2CCN(S(=O)(=O)c3ccc4c(c3)CCCN4C(=O)C3CCC3)CC2)c1C [G855-2047] |  |  | (%) HuNoV GEs [1, 3]: 133.69%
O=C(Nc1nc2ccc3scnc3c2s1)c1ccc2ccccc2c1 [KIN1148] |  |  | (%) HuNoV GEs [1, 3]: 58.10%
NC(=O)N1CCC(CC(=O)N2CCC([C@H]3c4ncc(Br)cc4CCc4cc(Cl)cc(Br)c43)CC2)CC1 [Lonafarnib] | 62.3 |  | 
Cc1c(-c2cnccn2)ssc1=S [Oltipraz] | 7.76 |  | 
C[C@@]1(F)[C@H](O)[C@@H](CO)O[C@H]1n1ccc(=O)[nH]c1=O [PSI6206] |  |  | (%) HuNoV GEs [1, 3]: 143.70%
NC(=O)c1ncn([C@@H]2O[C@H](CO)[C@@H](O)[C@H]2O)n1 [Ribavirin] | 64.5 |  | 
O=C(Nc1ccccc1)c1ccccc1O [Salicylanilide] | 85.5 |  | 
S=C(NCCc1ccccn1)Nc1ccc(Br)cn1 [Trovirdine] |  |  | activity at 10 µM [1]: 48.3%
CC(=O)Oc1c(C)c(C)c2c(c1C)CCC(C)(CCC[C@H](C)CCC[C@H](C)CCCC(C)C)O2 (stereo partly drawn) [Vitamin E Acetate] | 55.8 |  | 
Cc1ccc(NC(=O)C(=O)NC2CC(C)(C)NC(C)(C)C2)cc1 [YYA-021] |  |  | (%) HuNoV GEs [1, 3]: 54.17%
Cc1cn([C@H]2C[C@H](N=[N+]=[N-])[C@@H](CO)O2)c(=O)[nH]c1=O [Zidovudine] | 57.6 |  | 
Dermofongin |  |  | (%) HuNoV GEs [1, 3]: 46.93%
Dicurone |  |  | (%) HuNoV GEs [1, 3]: 90.75%
HZ-1157 |  |  | (%) HuNoV GEs [1, 3]: 36.74%
Maraviroc |  |  | (%) HuNoV GEs [1, 3]: 52.60%
